Assay results as given in patent publication US20110144018A1, “AGENT FOR PROPHYLAXIS OF REFLEX SYMPATHETIC DYSTROPHY AFTER CEREBRAL APOPLEXY” (priority 2006, published 2011).

Key:
[1] = system: RSD triggered and developed by a trauma or surgical invasion; conditions: clinical; cited from earlier work
[2] = system: patients with hemiplegia attributed to cerebrovascular disease (stroke) who developed RSD (shoulder-hand syndrome); assay: Test of treatment of post-stroke RSD; assay type: in vivo, human; conditions: therapeutic administration group
Protocol: EL was administered after the onset of RSD (shoulder-hand syndrome) in the same use and dose as in Example 1 to 11 patients with hemiplegia attributed to cerebrovascular disease (stroke) at Brunnstrom stage III or lower in either the upper limb or a finger on admission, who developed RSD (shoulder-hand syndrome). These patients were classified into a therapeutic administration group. On the other hand, the EL administration group of Example 1 was compared as a control (preventive administration group) with the therapeutic administration group.

[3] = system: patients with hemiplegia attributed to cerebrovascular disease (stroke), post-stroke RSD (shoulder-hand syndrome); assay: Test of prevention of onset of post-stroke RSD; assay type: in vivo, human
Source text: Test subjects were 33 patients with hemiplegia attributed to cerebrovascular disease (stroke) at Brunnstrom stage III or lower in either the upper limb or a finger on admission. Patients already developing RSD (shoulder-hand syndrome) on admission and patients with pain in the shoulder joint or swollen paralyzed limbs were excluded from the test. […] On the other hand, 21 test subjects were classified into a rehabilitation alone group (control group) and compared with the EL administration group. Physical therapy and therapeutic exercise, occupational therapy, and the management of the paralyzed limbs were performed thoroughly in all the cases. […] EL administration was initiated 11 to 59 days after an attack of stroke (25.8 days on average) and continued until 5 months after the attack of stroke. The same observation period was applied to the control group. The test subjects were diagnosed as developing RSD (shoulder-hand syndrome) if they had diffuse pain not localized to the shoulder joint, edema involving skin color changes, skin temperature abnormalities, and range of motion limitations, and the practice of their rehabilitation was restricted. These criteria agreed to Veldman's diagnostic criteria or diagnostic criteria, for CRPS-type 1 provided by the International Association for the Study of Pain.
Activities of daily living (ADL) were evaluated on the basis of the Barthel Index (BI) and the range of motion (ROM) of shoulder joint. The movable range of shoulder joint (also referred to as “shoulder ROM”) was regarded as restricted (Shoulder-ROM-restrictions were present.) if either abduction or flexion was restricted in measurement. The test subjects were also examined for sensory impairment, aphasia, and unilateral spatial neglect on admission.
Statistical analysis was conducted with unpaired t-test, Fisher's exact test, or Wilcoxon test, and 5% or lower significance level was regarded as being significant.

[4] = EL preventive administration group, 12 cases, 20 units i.m. once a week until 5 months after attack

Compound | Effect on initial onset of RSD [1] | Barthel index at completion of EL administration compared with preventive administration group [2] | Diffuse pain, shoulder joint pain and progression of range of motion restrictions [2] | Suppression of the symptoms of RSD [2] | Incidence of RSD converted to all patients with hemiplegia attributed to stroke in the facility ([3]; EL administration group) | Incidence of RSD ([3]; EL administration initiated within 48 days after stroke) [%] | Incidence of RSD (cases developing RSD) ([3]; EL preventive administration group, 1 of 12 cases) [%] | Number of test subjects developing post-stroke RSD (Developed) [3, 4] | Number of test subjects not developing post-stroke RSD (Not developed) [3, 4] | No RSD, the number of persons ([3]; preventive administration group, at completion of administration) | Incidence of RSD until discharge from hospital versus unadministered patient group ([3]; repetitive administration to stroke hemiplegia patients without RSD on admission)
O=C1O[C@H]([C@@H](O)CO)C(O)=C1O [vitamin C] | preventive effect | – | – | – | – | – | – | – | – | – | –
1-butyric acid-7-(L-2-aminobutyric acid)-26-L-aspartic acid-27-L-valine-29-L-alanine-calcitonin [EL] | – | significantly low | slightly suppressed | could not be suppressed completely in any case | approximately 1.3% | 0 | 8.3 | 1 | 11 | 11 | suppressed significantly and remarkably
